Read-outs that look alike come from different tables or passages of the source.
Key:
human whole blood = experiment: LPS-stimulation of human whole blood, TNF-α levels by ELISA; format: cell-based; settings: for IC50: LPS 100 ng/ml, 6 hrs, read-out: D—ester TNF-alpha inhibition (human whole blood), IC50
Experimental: Whole blood was taken by venous puncture using heparinised vacutainers (Becton Dickinson) and diluted in an equal volume of RPMI1640 tissue culture media (Sigma). 100 μl was plated in V-bottomed 96 well tissue culture treated plates. 2 hrs after the addition of the inhibitor in 100 μl of RPMI1640 media, the blood was stimulated with LPS (E coli strain 005:B5, Sigma) at a final concentration of 100 ng/ml and incubated at 37° C. in 5% CO2 for 6 hrs. TNF-α levels were measured from cell-free supernatants by sandwich ELISA (R&D Systems #QTA00B).

THP-1 cells = experiment: LPS-stimulation of THP-1 cells, TNF-α levels by ELISA; format: cell-based; settings: LPS 1 μg/ml, 6 hrs, read-out: C—ester TNF-alpha inhibition (THP-1 cells), IC50
Experimental: THP-1 cells were plated in 100 μl at a density of 4×10^4 cells/well in V-bottomed 96 well tissue culture treated plates and incubated at 37° C. in 5% CO2 for 16 hrs. 2 hrs after the addition of the inhibitor in 100 μl of tissue culture media, the cells were stimulated with LPS (E coli strain 005:B5, Sigma) at a final concentration of 1 μg/ml and incubated at 37° C. in 5% CO2 for 6 hrs. TNF-α levels were measured from cell-free supernatants by sandwich ELISA (R&D Systems #QTA00B).

p38 MAP Kinase a = p38 MAP Kinase a (Homo sapiens (Human), UniProt Q16539); experiment: p38 MAP kinase enzyme assay (radiometric filter-binding); format: biochemical
Chain of p38 MAP Kinase a (Q16539 whole entry): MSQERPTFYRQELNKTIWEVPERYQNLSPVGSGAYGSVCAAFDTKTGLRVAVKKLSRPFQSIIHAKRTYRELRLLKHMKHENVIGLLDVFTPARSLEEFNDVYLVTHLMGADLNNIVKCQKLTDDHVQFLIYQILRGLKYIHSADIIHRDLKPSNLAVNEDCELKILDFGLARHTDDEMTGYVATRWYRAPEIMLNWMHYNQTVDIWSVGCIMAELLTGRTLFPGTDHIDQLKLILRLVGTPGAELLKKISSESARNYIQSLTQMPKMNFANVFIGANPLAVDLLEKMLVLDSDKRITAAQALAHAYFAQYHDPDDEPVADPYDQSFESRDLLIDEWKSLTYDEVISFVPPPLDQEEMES
Experimental: The ability of compounds to inhibit p38 MAP a Kinase activity was measured in an assay performed by Upstate (Dundee UK). In a final reaction volume of 25 μL, p38 MAP Kinase a (5-10 mU) is incubated with 25 mM Tris pH 7.5, 0.002 mMEGTA, 0.33 mg/mL myelin basic protein, 10 mM MgAcetate and [g-33p-ATP] (specific activity approx. 500 cpm/pmol, concentration as required). The reaction is initiated by the addition of the MgATP mix. After incubation for 40 minutes at room temperature, the reaction is stopped by the addition of 5 μL of a 3% phosphoric acid solution. 10 μL of the reaction is then spotted onto a P30 filtermat and washed three times for 5 minutes in 75 mM phosphoric acid and once in methanol prior to drying and scintillation counting.
Duplicate data points are generated from a 1/3 log dilution series of a stock solution in DMSO. Nine dilutions steps are made from a top concentration of 10 μM, and a ‘no compound’ blank is included. The standard radiometric filter-binding assay is performed at an ATP concentration at, or close to, the Km. Data from scintillation counts are collected and subjected to free-fit analysis by Prism software.

[1] = corresponding acid (hydrolysis product of the named ester) tested, read-out: B—acid enzyme assay (p38 kinase A (invitrogen)), IC50
[2] = ester tested, read-out: A—ester enzyme assay (p38 kinase A (invitrogen)), IC50

Row | SMILES | IC50 (human whole blood; Homo sapiens) [µM] | IC50 (THP-1 cells; Homo sapiens, THP-1) [µM] | IC50 (p38 MAP Kinase a; [1]) [µM] | IC50 (p38 MAP Kinase a; [2]) [µM] | D—ester TNF-alpha inhibition (human whole blood), % at single concentration (human whole blood; @ 10 μm) [% @ 10 μm] | IC50 (human whole blood) [µM] | IC50 (THP-1 cells) [µM]
1 | CC(C)C[C@H](NCCc1cc(F)c(-n2c(N)c(C(=O)c3ccc(F)cc3)ccc2=O)c(F)c1)C(=O)OC1CCCC1 [Cyclopentyl N-(2-{4-[6-amino-5-(4-fluoro-benzoyl)-2-oxopyridin-1(2H)-yl]-3,5-difluorophenyl}ethyl)-L-leucinate] | 0.19 | 0.0009 | 0.001 | 0.012 | – | – | –
2 | CC(C)[C@H](NCCc1cc(F)c(-n2c(N)c(C(=O)c3ccc(F)cc3F)ccc2=O)c(F)c1)C(=O)OC1CCCC1 [Cyclopentyl N-[2-(4-{6-amino-5-[(2,4-difluoro-phenyl)carbonyl]-2-oxopyridin-1(2H)-yl}-3,5 difluorophenyl)ethyl]-L-valinate] | 5.18 | 0.0084 | – | 0.022 | – | – | –
3 | CC(C)C[C@H](NCCCOc1cc(F)c(-n2c(N)c(C(=O)c3ccc(F)cc3F)ccc2=O)c(F)c1)C(=O)OCCN1CCOCC1 [2-Morpholin-4-ylethyl N-(3-{4-[6-amino-5-(2,4-difluorobenzoyl)-2-oxopyridin-1(2H)-yl]-3,5-difluoro-phenoxy}propyl)-L-leucinate] | 0.935 | 0.0004 | – | – | – | – | –
4 | CC(C)C[C@H](NCCc1ccc(-n2c(N)c(C(=O)c3ccc(F)cc3)ccc2=O)cc1)C(=O)OC(C)(C)C [tert-Butyl N-[2-(4-{6-amino-5-[(4-fluoro-phenyl)carbonyl]-2-oxopyridin-1(2H)-yl}phenyl)ethyl]-L-leucinate] | 0.947 | 0.019 | 0.118 | 0.724 | – | – | –
5 | Nc1c(C(=O)c2ccc(F)cc2)ccc(=O)n1-c1c(F)cc(OCCCN[C@H](C(=O)OC2CCCC2)c2ccccc2)cc1F [Cyclopentyl (S)-(3-{4-[6-Amino-5-(4-fluorobenzoyl)-2-oxo-2H-pyridin-1-yl]-3,5-difluoro-phenoxy}propylamino) phenylacetate] | – | 0.038 | – | – | – | – | –
6 | CCOC(=O)[C@H](CC(C)C)NCCCOc1cc(F)c(-n2c(N)c(C(=O)c3ccc(F)cc3)ccc2=O)c(F)c1 [Ethyl N-(3-{4-[6-amino-5-(4-fluoro-benzoyl)-2-oxopyridin-1(2H)-yl]-3,5-difluorophenoxy}propyl)-L-leucinate] | – | 0.0086 | – | 0.028 | – | – | –
7 | CC(C)C[C@H](NCCCCCOc1cc(F)c(-n2c(N)c(C(=O)c3ccc(F)cc3F)ccc2=O)c(F)c1)C(=O)OC(C)(C)C [tert-Butyl N-(5-{4-[6-amino-5-(2,4-difluoro-benzoyl)-2-oxopyridin-1(2H)-yl]-3,5-difluorophenoxy}pentyl)-L-leucinate] | 1.25 | 0.029 | 0.002 | 0.073 | – | – | –
8 | CC(C)C[C@H](NCCCOc1cc(F)c(-n2c(N)c(C(=O)c3ccc(F)cc3F)ccc2=O)c(F)c1)C(=O)OC(C)(C)C [tert-Butyl (S)-2-(3-{4-[6-Amino-5-(2,4-difluorobenzoyl)-2-oxo-2H-pyridin-1-yl]-3,5-difluoro-phenoxy}propyl-amino)-4-methyl pentanoate] | 4.27 | 0.0761 | – | – | – | – | –
9 | CC(C)C[C@H](NCCc1ccc(-n2c(N)c(C(=O)c3ccc(F)cc3F)ccc2=O)cc1)C(=O)OC(C)(C)C [tert-Butyl N-[2-(4-{6-amino-5-[(2,4-difluoro-phenyl)carbonyl]-2-oxopyridin-1(2H)-yl}phenyl)ethyl]-L-leucinate] | 0.638 | 0.0024 | 0.058 | 0.33 | – | – | –
10 | CC(C)C[C@H](NCCCOc1cc(F)c(-n2c(N)c(C(=O)c3ccc(F)cc3F)ccc2=O)c(F)c1)C(=O)OC1CCCC1 [Cyclopentyl (S)-2-(3-{4-[6-Amino-5-(2,4-difluorobenzoyl)-2-oxo-2H-pyridin-1-yl]-3,5-difluoro-phenoxy}propyl-amino)-4-methyl pentanoate] | 0.594 | 0.0107 | – | – | – | – | –
11 | CC(C)(C)OC(=O)[C@@H](NCCc1cc(F)c(-n2c(N)c(C(=O)c3ccc(F)cc3F)ccc2=O)c(F)c1)c1ccccc1 [tert-butyl (2S)-[(2-{4-[6-amino-5-(2,4-difluoro-benzoyl)-2-oxopyridin-1(2H)-yl]-3,5-difluorophenyl}ethyl)amino] (phenyl)acetate] | 0.779 | 0.002 | – | – | – | – | –
12 | Nc1c(C(=O)c2ccc(F)cc2F)ccc(=O)n1-c1c(F)cc(CCN[C@H](C(=O)OC2CCCC2)c2ccccc2)cc1F [Cyclopentyl (2S)-[(2-{4-[6-amino-5-(2,4-difluorobenzoyl)-2-oxopyridin-1(2H)-yl]-3,5-difluorophenyl}ethyl)amino] (phenyl)acetate] | 0.148 | 0.0005 | 0.001 | 0.065 | – | – | –
13 | CC(C)(C)OC[C@H](NCCc1cc(F)c(-n2c(N)c(C(=O)c3ccc(F)cc3F)ccc2=O)c(F)c1)C(=O)OC(C)(C)C [tert-butyl N-(2-{4-[6-amino-5-(2,4-difluoro-benzoyl)-2-oxopyridin-1(2H)-yl]-3,5-difluorophenyl}ethyl)-O-tert-butyl-L-serinate] | – | 0.083 | 0.001 | 0.072 | – | – | –
14 | CC(C)C[C@@H](NCCc1cc(F)c(-n2c(N)c(C(=O)c3ccc(F)cc3F)ccc2=O)c(F)c1)C(=O)OC(C)(C)C [tert-butyl N-(2-{4-[6-amino-5-(2,4-difluoro-benzoyl)-2-oxopyridin-1(2H)-yl]-3,5-difluoro-phenyl}ethyl)-D-leucinate] | – | 0.081 | 0.002 | 0.167 | 0 | – | –
15 | NCC[C@H](NCCCOc1cc(F)c(-n2c(N)c(C(=O)c3ccc(F)cc3F)ccc2=O)c(F)c1)C(=O)OC1CCCC1 [Cyclopentyl (2S)-4-amino-2-[(3-{4-[6-amino-5-(2,4-difluoro-benzoyl)-2-oxopyridin-1(2H)-yl]-3,5-difluoro-phenoxy}propyl)amino]butanoate] | 0.479 | 0.022 | 0.005 | 0.001 | – | – | –
16 | Nc1c(C(=O)c2ccc(F)cc2F)ccc(=O)n1-c1c(F)cc(OCCCN[C@H](C(=O)OC2CCCC2)c2ccccc2)cc1F [Cyclopentyl (S)-(3-{4-[6-Amino-5-(2,4-difluorobenzoyl)-2-oxo-2H-pyridin-1-yl]-3,5-difluoro-phenoxy}propylamino) phenyl acetate] | 0.508 | 0.0053 | – | – | – | – | –
17 | CC(C)C[C@H](NCCCCCOc1cc(F)c(-n2c(N)c(C(=O)c3ccc(F)cc3F)ccc2=O)c(F)c1)C(=O)OC1CCCC1 [Cyclopentyl N-(5-{4-[6-amino-5-(2,4-difluorobenzoyl)-2-oxopyridin-1(2H)-yl]-3,5 - difluorophenoxy}pentyl)-L-leucinate] | 0.179 | 0.0042 | 0.002 | 0.081 | – | – | –
18 | C[C@H](NCCc1ccc(-n2c(N)c(C(=O)c3ccc(F)cc3F)ccc2=O)cc1)C(=O)OC(C)(C)C [tert-butyl N-[2-(4-{6-amino-5-[(2,4-difluoro-phenyl)carbonyl]-2-oxopyridin-1(2H)-yl}phenyl)ethyl]-L-alaninate] | 0.195 | 0.0028 | 0.058 | 0.058 | – | – | –
19 | CC(C)(C)OC[C@H](NCCc1cc(F)c(-n2c(N)c(C(=O)c3ccc(F)cc3F)ccc2=O)c(F)c1)C(=O)OC1CCCC1 [Cyclopentyl N-(2-{4-[6-amino-5-(2,4-difluoro-benzoyl)-2-oxopyridin-1(2H)-yl]-3,5-difluorophenyl}ethyl)-O-tert-butyl-L-serinate] | 1.29 | 0.0057 | 0.001 | 0.057 | – | – | –
20 | Nc1c(C(=O)c2ccc(F)cc2F)ccc(=O)n1-c1c(F)cc(CCN[C@@H](C(=O)OC2CCCC2)c2ccccc2)cc1F [Cyclopentyl (2R)-[(2-{4-[6-amino-5-(2,4-difluoro-benzoyl)-2-oxopyridin-1(2H)-yl]-3,5-difluorophenyl}ethyl)amino] (phenyl)acetate] | – | – | – | 0.047 | – | 4.11 | 0.021
21 | Nc1c(C(=O)c2ccc(F)cc2F)ccc(=O)n1-c1c(F)cc(OCCCN[C@@H](C(=O)OC2CCCC2)c2ccccc2)cc1F [Cyclopentyl (2R)-[(3-{4-[6-amino-5-(2,4-difluorobenzoyl)-2-oxopyridin-1(2H)-yl]-3,5-difluorophenoxy}propyl)amino] (phenyl)acetate] | – | 0.006 | – | – | – | – | –
